Results from patent publication US7375229B2, “Dihydro-dibenzo[B,E]oxepine based selective estrogen receptor modulators, compositions and methods” (Eli Lilly and Company, priority 2002, dated 2008).

Tests used:
[1] = test system: Ishikawa human endometrial tumor cells; test: Ishikawa cell assay (PNPP readout), agonist and antagonist modes; type: cell-based; settings: for IC50: Homo sapiens, Ishikawa, antagonist mode, with 1 nM E2; for Ishikawa Agonist % Eff: agonist mode, % efficacy versus the response to Tamoxifen
Excerpt: Ishikawa human endometrial tumor cells are maintained in MEM (minimum essential medium, with Earle's salts and L-Glutamine, Gibco BRL, Gaithersburg, Md.), supplemented with 10% fetal bovine serum (FBS) (V/V), (Gibco BRL). One day prior to assay, growth media is changed to assay medium, DMEM/F-12 (3:1) (Dulbecco's Modified Eagle Medium: Nutrient Mixture F-12, 3:1 Mixture, phenol red-free, Gibco BRL) supplemented with 5% dextran coated charcoal stripped fetal bovine serum (DCC-FBS) (Hyclone, Logen, Utah), L-Glutamine (2 mM), MEM sodium pyruvate (1 mM), HEPES (N-[2-hydroxyethyl]piperazine-N′-[2-ethanesulfonic acid] 2 mM) all from Gibco BRL). After an overnight incubation, ishikawa cells are rinsed with Dulbecco's Phosphate Buffered Saline (1×) (D-PBS) without Ca^+2 and Mg^+2 (Gibco BRL), and trypsinized by a 3 minute incubation with 0.25% Trypsin/EDTA, phenol red-free (Gibco BRL). Cells are resuspended in assay medium and adjusted to 250,000 cells/ml. Approximately 25,000 cells in a 100 ul media are added to flat-bottom 96 wells microculture plates (Costar 3596) and incubated at 37° C. in a 5% CO2 humidified incubator for 24 hours. The next day, serial dilutions of compounds are prepared in assay medium (at 6 times the finial concentration in the assay). The assay is run in dual mode, agonist and antagonist modes. For the agonist mode, plates receive 25 μl/well of assay medium followed by 25 μl/well of diluted compounds (at 6× the final concentrations). For the antagonist mode, plates receive 25 µl/well of 6 nM E2 (β-Estradiol, Sigma, St. Louis, Mo.) followed by 25 μl/well of diluted compounds (at 6× the final concentrations). After an additional 48-hour incubation at 37° C. in a 5% CO2 humidified incubator, media is aspirated from wells and 100 μl fresh assay medium is added to each microculture. Serial dilutions of compounds are prepared and added to the cells as described above. After an additional 72 hour incubation at 37° C. in a 5% CO2 humidified incubator, the assay is quenched by removing media and rinsing plates twice in Dulbecco's Phosphate Buffered Saline (1×) (D-PBS) (Gibco BRL). The plates are dried for 5 min and frozen at −70° C. for at least 1 hour. The plates are then removed from the freezer and allowed to thaw at room temperature. To each well, 100 μl of 1-Step™ PNPP (Pierce Chemical Company, Rockford, Ill.) is added. After a 20-minute incubation, plates are read on a spectophotometer at 405 nm. The data is fitted to a linear interpolation to derive EC50 (for agonist mode) or IC50 (for antagonist mode) values. For the agonist mode, a % efficacy for each compound is calculated versus the response to Tamoxifen. For the antagonist mode, a % efficacy for each compound is calculated versus E2 (1 nM) alone.

ERbeta receptor = biological target: T1, ERbeta receptor (Homo sapiens, UniProt Q92731); test: Competition binding assay with 3H-Estradiol, ERbeta receptor; settings: IC50 converted to Ki using Cheng-Prusoff equation; 3H-Estradiol competition; read-out: ER binding Ki (ERβ)
T1 construct: purchased PanVera
T1 sequence (Q92731 whole entry): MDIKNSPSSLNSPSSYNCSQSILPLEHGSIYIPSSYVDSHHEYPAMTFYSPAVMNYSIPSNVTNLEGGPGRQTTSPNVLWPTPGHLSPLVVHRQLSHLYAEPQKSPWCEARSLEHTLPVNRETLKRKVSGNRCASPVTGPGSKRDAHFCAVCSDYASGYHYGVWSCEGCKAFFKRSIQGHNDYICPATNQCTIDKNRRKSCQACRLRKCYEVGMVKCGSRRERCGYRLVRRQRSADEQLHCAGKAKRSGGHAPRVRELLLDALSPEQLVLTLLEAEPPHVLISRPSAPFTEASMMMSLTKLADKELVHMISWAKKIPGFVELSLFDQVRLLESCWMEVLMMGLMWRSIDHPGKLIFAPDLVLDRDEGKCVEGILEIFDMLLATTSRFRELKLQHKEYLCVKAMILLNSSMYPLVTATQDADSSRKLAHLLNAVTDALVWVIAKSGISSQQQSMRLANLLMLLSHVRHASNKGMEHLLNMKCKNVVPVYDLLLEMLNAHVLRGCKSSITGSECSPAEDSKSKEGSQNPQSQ
Protocol: (§1) Competition binding assay is run in a buffer containing 50 mM Hepes, pH 7.5, 1.5 mM EDTA, 150 mM NaCl, 10% glycerol, 1 mg/ml ovalbumin and 5 mM DTT, using 0.025 μCi per well ^3H-Estradiol (NEN #NET517 at 118 Ci/mmol, 1 mCi/ml), 10 ng/well ERAlpha or ERbeta receptor (PanVera). Competing compounds are added at 10 different concentrations. Non-specific binding is determined in the presence of 1 μM of 17-B Estradiol. The binding reaction (140 μl) is incubated for 4 hours at room temperature, then 70 μl of cold DCC buffer is added to each reaction (DCC buffer contains per 50 ml of assay buffer, 0.75 g of charcoal (Sigma) and 0.25 g of dextran (Pharmacia)). Plates are mixed 8 minutes on an orbital shaker at 4° C. Plates are then centrifuged at 3,000 rpm at 4° C. for 10 minutes. An aliquot of 120 μl of the mix is transferred to another 96-well, white flat bottom plate (Costar) and […] of Wallac Optiphase “Hisafe 3” scintillation fluid is added to each well. Plates are sealed and shaken vigorously on an orbital shaker. After an incubation of 2.5 hrs, read plates in a Wallac Microbeta counter. The data is used to calculate an IC50 and % Inhibition at 10 μM. The Kd for ^3H-Estradiol is determined by saturation binding to ER alpha and ER beta receptors. The IC50 values for compounds are converted to Ki using Cheng-Prusoff equation and the Kd determined by saturation binding assay.

[2] = test system: MCF-7 breast adenocarcinoma cells; test: MCF-7 proliferation assay (14C-thymidine), antagonist mode; type: cell-based; settings: Homo sapiens, MCF7, with 10 pM E2
Protocol: MCF-7 breast adenocarcinoma cells (ATCC HTB 22) are maintained in MEM (minimal essential medium, phenol red-free, Gibco BRL) supplemented with 10% fetal bovine serum (FBS) (V/V), L-glutamine (2 mM), sodium pyruvate (1 mM), HEPES ((N-[2-hydroxyethyl]piperazine-N′-[2-ethanesulfonic acid] 10 mM}, non-essential amino acids (0.1 mM) and Penicillin Streptomycin (1×). Seven days prior to assay, MCF-7 cells are switched to assay media which is the same as maintenance medium except supplemented with 10% dextran-coated charcoal-stripped fetal bovine serum (DCC-FBS) assay medium in place of 10% FBS. MCF-7 cells are removed from flasks using 10× Trypsin EDTA (phenol red free, Gibco BRL) and diluted to 1× in (Ca++/Mg++ free HBSS (phenol red-free). Cells are adjusted to 80,000 cells/ml in assay medium. […] For each of the agonist plates, a basal level (media) and a maximum stimulated level (with 1 μM E2) is determined. For each of the antagonist plates, a basal level (media) and a E2 (10 pM) alone control is determined. […] The plates are incubated overnight in the same incubator and then counted on the Wallac Microbeta counter. […] For the agonist mode, an EC50 and percent of maximum E2 stimulation and concentration of maximum stimulation is calculated.

ERAlpha receptor = biological target: T2, ERAlpha receptor (Homo sapiens, UniProt P03372); test: Competition binding assay with 3H-Estradiol, ERAlpha receptor; settings: IC50 converted to Ki using Cheng-Prusoff equation; 3H-Estradiol competition; read-out: ER binding Ki (ERα)
T2 construct: purchased PanVera
T2 sequence (P03372 1-595): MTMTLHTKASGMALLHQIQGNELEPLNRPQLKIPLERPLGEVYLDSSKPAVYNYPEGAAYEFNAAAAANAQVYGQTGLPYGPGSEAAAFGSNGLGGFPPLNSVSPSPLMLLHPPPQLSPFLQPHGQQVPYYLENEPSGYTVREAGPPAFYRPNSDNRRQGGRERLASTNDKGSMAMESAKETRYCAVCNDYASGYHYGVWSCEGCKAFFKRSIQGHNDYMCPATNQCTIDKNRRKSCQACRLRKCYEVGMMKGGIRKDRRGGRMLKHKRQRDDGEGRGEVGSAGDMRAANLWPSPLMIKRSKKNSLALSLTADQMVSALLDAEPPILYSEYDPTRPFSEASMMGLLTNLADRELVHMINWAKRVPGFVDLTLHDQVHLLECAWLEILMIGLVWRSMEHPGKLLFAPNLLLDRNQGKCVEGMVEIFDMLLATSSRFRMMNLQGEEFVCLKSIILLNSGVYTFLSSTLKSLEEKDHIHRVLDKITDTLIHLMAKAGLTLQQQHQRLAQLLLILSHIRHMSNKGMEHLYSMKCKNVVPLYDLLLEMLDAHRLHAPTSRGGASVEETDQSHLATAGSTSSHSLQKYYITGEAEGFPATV
Protocol: as §1

IC50 [1]	Ki (ERbeta receptor)	IC50 [2]	Ki (ERAlpha receptor)	SMILES	Ishikawa Agonist % Eff [1]
19 nM	1 nM	8 nM	1 nM	Oc1ccc2c3c(sc2c1)Cc1ccccc1OC3c1ccc(OCCN2CCCCC2)cc1 (stereo not shown) [Example 1, 5-[4-(2-Piperidin-1-yl-ethoxy)-phenyl]-5,11-dihydro-6-oxa-12-thia-dibenzo[a,f]azulen-2-ol]	4%
454 nM	3 nM	10 nM	2 nM	Oc1ccc2c3c(ccc2c1)Cc1ccccc1OC3c1ccc(OCCN2CCCCC2)cc1 (stereo not shown) [Example 2, 13-[4-(2-Piperidin-1-yl-ethoxy)-phenyl]-7,13-dihydro-12-oxa-benzo[4,5]cyclohepta[1,2-a]naphthalen-3-ol]	24%
